BindingDB's records for doi:10.1016/S0960-894X(01)80278-X (n/a, 1994)
Starred links: 1 amine or outer side, 2 acyl side, 3 side chain; linkers in the order of their positions; H or OH if unused. Non-standard residues stand in square brackets, D forms with d. Residues, ends and D or L forms follow the SMILES beside them. *: point of attachment. X2 = C=CCN([C@@H](C)C(=O)[*:2])[*:1]; X1 = O=C(CN(CC(Br)CBr)[*:1])[*:2]; X3 = O=C(CN(CC(Cl)CCl)[*:1])[*:2]; NAllylGly = C=CCNCC(=O)O; Boc = CC(C)(C)OC(=O)*

Experiment: Antiviral activity against HIV-1 in CEM cells

SMILES | IC50 [µM]
CC[C@H](C)[C@H](NC(=O)CN(CC(Cl)CCl)C(=O)[C@H](Cc1ccccc1)NC(=O)OC(C)(C)C)C(=O)N[C@H](C(=O)OC)C(C)C (stereo not given in full) | > 50.4
CC[C@H](C)[C@H](NC(=O)CN(CC(Br)CBr)C(=O)[C@H](Cc1ccccc1)NC(=O)OC(C)(C)C)C(=O)N[C@H](C(=O)OC)C(C)C (stereo not given in full) | 56.7
C=CCN(C(=O)[C@H](Cc1ccccc1)NC(=O)OC(C)(C)C)[C@@H](C)C(=O)N[C@H](C(=O)N[C@H](C(=O)OC)C(C)C)[C@@H](C)CC | > 16.5
C=CCNCC(=O)N[C@H](C(=O)N[C@H](C(=O)OC)C(C)C)[C@@H](C)CC | > 195
C=CCN(CC(=O)N[C@H](C(=O)N[C@H](C(=O)OC)C(C)C)[C@@H](C)CC)C(=O)OC(C)(C)C | > 226
C=CCN(C(=O)[C@H](Cc1ccccc1)NC(=O)[C@H](C)NC(=O)[C@H](C)NC(=O)OC(C)(C)C)[C@@H](C)C(=O)N[C@H](C(=O)N[C@H](C(=O)OC)C(C)C)[C@@H](C)CC (Boc-AAF[X2]IV-OMe) | 3.89
C=CCN(CC(=O)N[C@H](C(=O)N[C@H](C(=O)OC)C(C)C)[C@@H](C)CC)C(=O)[C@H](Cc1ccccc1)NC(=O)[C@H](C)NC(=O)OC(C)(C)C (Boc-AF[NAllylGly]IV-OMe) | 54.1
CC[C@H](C)[C@H](NC(=O)CN(CC(Br)CBr)C(=O)[C@H](Cc1ccccc1)NC(=O)[C@H](C)NC(=O)OC(C)(C)C)C(=O)N[C@H](C(=O)OC)C(C)C (stereo not given in full) (Boc-AF[X1]IV-OMe) | > 610
C=CCN(C(=O)[C@H](Cc1ccccc1)NC(=O)[C@H](C)NC(=O)OC(C)(C)C)[C@@H](C)C(=O)N[C@H](C(=O)N[C@H](C(=O)OC)C(C)C)[C@@H](C)CC (Boc-AF[X2]IV-OMe) | > 296
CC[C@H](C)[C@H](NC(=O)CN(CC(Cl)CCl)C(=O)[C@H](Cc1ccccc1)NC(=O)[C@H](C)NC(=O)OC(C)(C)C)C(=O)N[C@H](C(=O)OC)C(C)C (stereo not given in full) (Boc-AF[X3]IV-OMe) | > 136
C=CCN(CC(=O)N[C@H](C(=O)N[C@H](C(=O)OC)C(C)C)[C@@H](C)CC)C(=O)[C@H](Cc1ccccc1)NC(=O)OC(C)(C)C (Boc-F[NAllylGly]IV-OMe) | > 169
C=CCN(CC(=O)N[C@H](C(=O)N[C@H](C(=O)OC)C(C)C)[C@@H](C)CC)C(=O)[C@H](Cc1ccccc1)NC(=O)[C@H](C)NC(=O)[C@H](C)NC(=O)[C@H](CO)NC(=O)OC(C)(C)C (Boc-SAAF[NAllylGly]IV-OMe) | > 24.4
C=CCN(C(=O)[C@H](Cc1ccccc1)NC(=O)[C@H](C)NC(=O)[C@H](C)NC(=O)[C@H](CO)NC(=O)OC(C)(C)C)[C@@H](C)C(=O)N[C@H](C(=O)N[C@H](C(=O)OC)C(C)C)[C@@H](C)CC (Boc-SAAF[X2]IV-OMe) | > 120
C=CCN(CC(=O)N[C@H](C(=O)N[C@H](C(=O)OC)C(C)C)[C@@H](C)CC)C(=O)[C@H](Cc1ccccc1)NC(=O)[C@H](C)N (H-AF[NAllylGly]IV-OMe) | > 178
C=CCN(CC(=O)N[C@H](C(=O)N[C@H](C(=O)OC)C(C)C)[C@@H](C)CC)C(=O)[C@@H](N)Cc1ccccc1 (H-F[NAllylGly]IV-OMe) | > 204
